Values of other authors, collected in patent US11278511B2, “Sports health performance composition” (REV Pharmaceuticals, Inc., priority 2016, dated 2022).
Read-outs that look alike come from different tables or passages of the source.

How the values were obtained:
[1] = test system: urinary cGMP and nitrate excretion
[2] = IV infusion or oral, doses 6 to 30 gm, humans

N=C(N)NCCC[C@H](N)C(=O)O [L-arginine]
urinary cGMP excretion ([1]; 6 gm IV): significant increases | urinary nitrate excretion ([1]; 6 gm IV): significant increases | urinary cGMP excretion ([1]; 30 gm IV): significant increases | urinary nitrate excretion ([1]; 30 gm IV): significant increases | Cmax (6 gm IV): 822 µM | Cmax (6 gm oral): 310 µM | Cmax (30 gm IV): 6220 µM | Half life (IV): 1 h | Half life (PO): 1.5 h | changes in hemodynamics (humans; 6 gm doses): No significant changes | blood pressure (humans; 30 gm IV): significantly decreased | total peripheral resistance (humans; 30 gm IV): significantly decreased | endothelium-dependent vasodilation (humans; [2]): improved endothelium-dependent vasodilation | muscle blood flow (humans; [2]): improved muscle blood flow | peripheral vasodilation (humans; [2]): induced peripheral vasodilation
